Assay results taken from patent US20060039985A1, “Methotrexate compositions” (priority 2004, published 2006).

How the values were obtained:
Assay type in all cases: physicochemical
[1] = Karl Fisher moisture determination; details: Karl Fisher potentiometric titration; powder in formamide; 0.6 % RSD
Procedure: Moisture content in methotrexate powder was measured by Karl Fisher potentiometric titration by direct injection using a Mitsubishi model CA-06 moisturemeter (Mitsubishi Kasei Corporation, Japan). The powder was dissolved/dispersed in 2.5 mL formamide and 1 mL of the solution was injected […]. Titration checks were made by injecting water standards, Mitsubishi (catalogue number MC02020), at several time intervals.

[2] = Dynamic vapor sorption (DVS) study; details: 25° C.
Procedure: Water sorption/desorption studies were conducted on a DVS-1000 moisture balance system (Surface Measurement Systems, UK). A sample (15-30 mg) was initially dried at 25° C. until a constant weight was achieved. The relative humidity was increased from 0 to 90% (with 5% relative humidity increments). Each successive increment was initiated when the change in weight at a given relative humidity was smaller than 5 μg over 5 minutes. Once the sample was exposed to 90% relative humidity, the process was reversed from 90% to 0 relative humidity (with 10% relative humidity increments).

[3] = Solubility in REDISPERSE organic solvent (noted in the PLM study)
Procedure: PLM and hot stage microscopy studies were done using a Nikon (Melville, N.Y.) Optihot-2 polarizing microscope. A Mettler (Columbus, Ohio) Toledo FP82HT hot stage attachment provided the variable temperature analyses from room temperature to 250° C. at 10° C. per minute. Photomicrographs were taken using a Nikon 35 mm attachment using either a 20× or 40× objective. Microscope slides and coverslips were cleaned with methanol prior to use.
Birefringence persisted after quench cooling from […]

[4] = Modulated differential scanning calorimetry (MDSC) study; details: MDSC heating, 2° C./minute
Procedure: MDSC studies were performed using a TA 2920 instrument (TA instruments, New Castle, Del.). A sample (5-10 mg) of the powder was filled into an aluminum DSC pan in a glove box, with the relative humidity maintained under 1%, and hermetically sealed using a sample encapsulation press. Helium was used as a purge at 30 cm^3/minute; the Refrigerated Control System (RCS) used helium at a flow rate of 110 cm^3/minute. The MDSC protocol was as follows: equilibrate at 0° C.; modulate ±0.318° C. every 60 seconds; ramp 2° C./minute to 200° C.; isothermal for 5 minutes; ramp 10° C./minute to 0° C.; isothermal for 5 minutes; modul 0.318° C. every 60 seconds; ramp 2° C./minute to 280° C.

- Moisture content [1]: 7.1%
- Relative humidity at which signs of moisture-induced crystallization are observed in DVS time profile [2]: 70 % relative humidity
- Hysteresis upon desorption of water ([2]; 90% to 0 relative humidity): no hysteresis
- Absorption of water, % of its weight ([2]; at 90% relative humidity): about 13.5%
- Storage relative humidity for long term stability of liquid crystalline phase ([2]; suggested by DVS data): below 70 % relative humidity
- Solubility in REDISPERSE brand of solvent [3]: insoluble
- Decomposition temperature [4]: 246-250 °C
Structure (SMILES): CN(Cc1cnc2nc(N)nc(N)c2n1)c1ccc(C(=O)N[C@@H](CCC(=O)O)C(=O)O)cc1 [methotrexate]
- Hygroscopicity compared to crystalline material [2]: hygroscopic than the crystalline material
